Source: patent US9067926B2, “Fluoromethyl-5,6-dihydro-4H-[1,3]OXAZINES” (F. Hoffmann-La Roche AG, priority 2012, dated 2015)

Assays:
[1] = Detection of glutathione conjugates (GSH); assay type: in vitro ADME, human; parameters: key: NF = in vitro no adduct formation relative to control; details: in vitro, relative to control
From the text: Detection of Glutathione Conjugates (GSH) The assay conditions for the detection of glutathione conjugates follow the procedure described by C. M. Dieckhaus et al. in Chem. Res. Toxicol. 2005, 18, 630-63.

hERG = hERG (Homo sapiens, UniProt Q12809); assay: hERG current measurement (automated patch clamp); assay type: cell-based
Description: The hERG current measurement was performed at an automated patch clamp system following the procedure described in R. E. Martin et al. in Bio org.

Aβ40 in brain = assay: In vivo inhibition of Aβ40 in brain of wild-type mice; details: Mus musculus, po; 10 mg/kg p.o., brain Aβ40 after 4 h, female C57Bl/6J mice; read-out: in vivo effect, Percentage of control @ 10 mg/kg p.o
Description: In Vivo Experiments. […] The test compound was dissolved in 5% EtOH, 10% Solutol and was applied per os at 10 ml/kg. After 4 h the animals were sacrificed and brain and plasma were collected. The brain was cut into halves and immediately frozen on dry ice. Brain was used for measurement of Aβ40 and plasma was used for determination of compound exposure. […] Brain tissue was homogenized in 2% DEA buffer in a Roche […] (20'', 4000 rpm) and subsequently centrifuged for 1 h at 100'000 g. DEA was reduced to 0.2% in 50 mM NaCl and one half of the DEA lysate was passed over an Oasis Solid Phase extraction plate (Waters; Cat.Nr. 186000679) which had been activated with MeOH and equilibrated in dH2O (1 ml each). After washes in 10% and 30% MeOH (1 ml each) the AP-peptides were eluted in 0.8 ml 2% NH4OH in 90% MeOH. […] Aβ40 was determined by an AlphaLISA assay (Perkin Elmer). In a white 96well half-area microplate (Perkin Elmer Cat.Nr. 6005561), 20 μl of the reconstituted sample were mixed with 5 μl biotinylated BAP-24 (specific for C-terminus of Aβ40 (Brockhaus, M.; Grunberg, J.; Rohrig, S.; Loetscher, H.; Wittenburg, N.; Baumeister, R.; Jacobsen, […]. Caspase-mediated cleavage is not required for the activity of presenilins in amyloidogenesis and NOTCH signaling. […] The mix was incubated for 1 h at RT in the dark. Then 20 μl Streptavin-coated Donor Beads (Perkin Elmer Cat. Nr. 6760002, final dilution 1:125) were added and this final mix was incubated in the dark for another 30 min at r.t. before RFU was measured in an AlphaScreen Reader(Perkin Elmer Envision 2104).

[2] = target: T1, recombinant human cathepsin E (Homo sapiens, UniProt P14091); assay: Cathepsin E fluorescent substrate kinetic assay; assay type: biochemical; details: pH 4.5
T1 construct: purchased R&D Systems
T1 sequence (P14091 54-396): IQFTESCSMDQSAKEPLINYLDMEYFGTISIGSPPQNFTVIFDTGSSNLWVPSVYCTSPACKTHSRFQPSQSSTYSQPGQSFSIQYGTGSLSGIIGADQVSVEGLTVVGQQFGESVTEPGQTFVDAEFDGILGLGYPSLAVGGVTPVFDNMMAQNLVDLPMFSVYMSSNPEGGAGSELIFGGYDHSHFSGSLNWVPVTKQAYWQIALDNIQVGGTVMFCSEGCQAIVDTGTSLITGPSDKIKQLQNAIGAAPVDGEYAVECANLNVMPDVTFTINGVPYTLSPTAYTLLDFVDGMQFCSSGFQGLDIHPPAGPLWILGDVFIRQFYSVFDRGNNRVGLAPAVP
From the text: (§1) Cathepsin D and Cathepsin E Fluorescent Substrate Kinetic Assays
(§2) The MR121 fluorescence assays described below are based on the fact that MR121 forms a non-fluorescent ground state complex with tryptophan. In solution this formation occurs at millimolar concentrations of tryptophan. The mechanism can be used to design a generic biochemical assay for proteases. […] In absence of protease activity, the substrates remain intact and the MR121 fluorescence is reduced by the high local Trp-concentration. If the substrates are cleaved by the enzymes the MR121 fluorescence is recovered.
(§3) The fluorescent substrate cathepsin D and cathepsin E kinetic assays were performed at room temperature in 384-well microtiter plates (black with clear flat bottom, non binding surface plates from Corning) in a final volume of 51 μl. The test compounds were serially diluted in DMSO (15 concentrations, 1/3 dilution steps) and 1 μl of diluted compounds were mixed for 10 min with 40 μl of cathepsin D (from human liver, Calbiochem) diluted in assay buffer (100 mM sodium acetate, 0.05% BSA, pH 5.5; final concentration: 200 nM) or with 40 μl of recombinant human cathepsin E (R&D Systems) diluted in assay buffer (100 mM sodium acetate, 0.05% BSA, pH 4.5; final concentration: 0.01 nM). […] The slope in the linear range of the kinetic was calculated and the IC50 of the test compounds were determined using a four parameter equation for curve fitting.

[3] = target: T2, cathepsin D (from human liver) (Homo sapiens, UniProt P07339); assay: Cathepsin D fluorescent substrate kinetic assay; assay type: biochemical; details: pH 5.5
T2 construct: cathepsin D (from human liver, Calbiochem) diluted in assay buffer; purchased Calbiochem; host or cells: human liver
From the text: as §1, §2, §3

CYP3A4 = target: T3, CYP3A4 (Homo sapiens, UniProt P08684); assay: CYP inhibition assay, CYP3A4; assay type: in vitro ADME; details: pooled human liver microsomes, midazolam substrate; read-out: CYP IC50 3A4
T3 construct: 0.2 mg/ml pooled human liver microsomes; from tissue; host or cells: pooled human liver microsomes
Description: (§4) Inhibition of cytochromes P450 (CYPs) 2C9, 2D6 and 3A4 was assessed using human liver microsomes and CYP-selective substrate metabolism reactions. […] Quenched incubates were stored at −20° C. for at least 1 hour before centrifugation (20,000×g, 20 minutes). Supernatants were removed and diluted 1:1 with water prior to analysis using a RapidFire sample injector system and API4000 mass spectrometer. Peak areas for substrate, metabolite and stable-labelled metabolite standard were determined using MS/MS. The peak area ratios between the metabolite generated by the enzymatic reaction and the internal standard were used in subsequent calculations. The percentage of (DMSO) control activity was calculated for each incubate and IC50 values estimated by non-linear regression. Sulfaphenazole, quinidine or ketoconazole were tested in each CYP2C9, CYP2D6 or CYP3A4 inhibition experiment, respectively, to ensure assay sensitivity and reproducibility.

CYP2D6 = target: T4, CYP2D6 (Homo sapiens, UniProt P10635); assay: CYP inhibition assay, CYP2D6; assay type: in vitro ADME; details: pooled human liver microsomes, dextromethorphan substrate; read-out: CYP IC50 2D6
T4 construct: 0.2 mg/ml pooled human liver microsomes; from tissue; host or cells: pooled human liver microsomes
Description: as §4

CYP2C9 = target: T5, CYP2C9 (Homo sapiens, UniProt P11712); assay: CYP inhibition assay, CYP2C9; assay type: in vitro ADME; details: pooled human liver microsomes, diclofenac substrate; read-out: CYP IC50 2C9
T5 construct: 0.2 mg/ml pooled human liver microsomes; from tissue; host or cells: pooled human liver microsomes
Description: as §4

Chain of hERG (Q12809 whole entry): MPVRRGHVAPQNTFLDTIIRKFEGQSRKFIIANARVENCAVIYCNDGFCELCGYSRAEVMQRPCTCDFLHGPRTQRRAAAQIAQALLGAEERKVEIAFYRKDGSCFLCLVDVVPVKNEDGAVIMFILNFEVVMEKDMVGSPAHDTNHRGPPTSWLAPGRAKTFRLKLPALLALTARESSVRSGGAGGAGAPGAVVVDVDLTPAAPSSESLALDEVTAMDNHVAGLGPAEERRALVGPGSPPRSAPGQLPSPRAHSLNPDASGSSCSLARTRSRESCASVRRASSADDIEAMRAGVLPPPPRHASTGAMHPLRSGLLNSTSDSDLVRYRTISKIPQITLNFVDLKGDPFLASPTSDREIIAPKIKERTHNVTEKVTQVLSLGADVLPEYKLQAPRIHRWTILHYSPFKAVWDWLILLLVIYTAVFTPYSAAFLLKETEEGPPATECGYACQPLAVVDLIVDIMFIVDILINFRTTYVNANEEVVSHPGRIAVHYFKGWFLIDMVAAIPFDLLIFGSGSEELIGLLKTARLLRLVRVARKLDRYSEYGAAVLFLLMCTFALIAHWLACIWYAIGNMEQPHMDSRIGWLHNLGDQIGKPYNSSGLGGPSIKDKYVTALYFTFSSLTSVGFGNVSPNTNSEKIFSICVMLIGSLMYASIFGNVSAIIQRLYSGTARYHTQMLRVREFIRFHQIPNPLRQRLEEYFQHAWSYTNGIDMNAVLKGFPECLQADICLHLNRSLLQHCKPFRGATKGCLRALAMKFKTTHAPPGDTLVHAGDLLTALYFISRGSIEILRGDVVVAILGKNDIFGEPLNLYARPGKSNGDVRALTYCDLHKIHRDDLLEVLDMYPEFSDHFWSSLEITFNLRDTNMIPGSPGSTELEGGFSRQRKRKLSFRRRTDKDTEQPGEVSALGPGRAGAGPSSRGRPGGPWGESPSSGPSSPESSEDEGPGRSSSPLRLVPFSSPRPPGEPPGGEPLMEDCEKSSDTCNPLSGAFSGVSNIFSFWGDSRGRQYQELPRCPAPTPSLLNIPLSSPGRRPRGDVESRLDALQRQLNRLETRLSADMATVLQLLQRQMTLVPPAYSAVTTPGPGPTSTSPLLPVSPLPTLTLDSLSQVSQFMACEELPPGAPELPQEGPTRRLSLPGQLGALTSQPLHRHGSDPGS
T5 sequence (P11712 whole entry): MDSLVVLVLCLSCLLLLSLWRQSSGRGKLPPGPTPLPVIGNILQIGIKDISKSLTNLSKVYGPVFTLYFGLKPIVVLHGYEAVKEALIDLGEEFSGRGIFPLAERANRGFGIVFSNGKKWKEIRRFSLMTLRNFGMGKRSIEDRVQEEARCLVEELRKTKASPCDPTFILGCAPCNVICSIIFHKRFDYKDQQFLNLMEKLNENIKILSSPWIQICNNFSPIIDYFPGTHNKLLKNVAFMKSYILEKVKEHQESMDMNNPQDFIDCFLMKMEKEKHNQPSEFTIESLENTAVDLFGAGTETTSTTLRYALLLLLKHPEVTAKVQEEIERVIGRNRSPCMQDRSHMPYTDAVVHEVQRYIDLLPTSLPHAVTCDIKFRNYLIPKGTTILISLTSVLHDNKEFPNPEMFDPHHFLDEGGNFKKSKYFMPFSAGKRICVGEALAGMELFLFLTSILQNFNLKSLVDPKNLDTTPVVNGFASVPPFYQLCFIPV
T4 sequence (P10635 whole entry): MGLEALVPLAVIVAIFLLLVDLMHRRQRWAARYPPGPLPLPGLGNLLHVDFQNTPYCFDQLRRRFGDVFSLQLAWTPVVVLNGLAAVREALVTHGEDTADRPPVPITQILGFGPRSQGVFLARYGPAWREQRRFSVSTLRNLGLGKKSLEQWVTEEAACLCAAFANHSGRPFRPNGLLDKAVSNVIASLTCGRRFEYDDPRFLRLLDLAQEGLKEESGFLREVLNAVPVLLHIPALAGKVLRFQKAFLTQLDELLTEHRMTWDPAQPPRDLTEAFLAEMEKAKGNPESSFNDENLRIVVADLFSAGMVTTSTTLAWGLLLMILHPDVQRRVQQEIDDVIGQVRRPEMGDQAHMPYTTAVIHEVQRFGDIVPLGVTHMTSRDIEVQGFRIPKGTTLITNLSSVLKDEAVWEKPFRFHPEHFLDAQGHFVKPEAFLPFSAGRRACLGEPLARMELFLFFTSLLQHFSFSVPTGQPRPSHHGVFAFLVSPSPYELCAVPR
T3 sequence (P08684 whole entry): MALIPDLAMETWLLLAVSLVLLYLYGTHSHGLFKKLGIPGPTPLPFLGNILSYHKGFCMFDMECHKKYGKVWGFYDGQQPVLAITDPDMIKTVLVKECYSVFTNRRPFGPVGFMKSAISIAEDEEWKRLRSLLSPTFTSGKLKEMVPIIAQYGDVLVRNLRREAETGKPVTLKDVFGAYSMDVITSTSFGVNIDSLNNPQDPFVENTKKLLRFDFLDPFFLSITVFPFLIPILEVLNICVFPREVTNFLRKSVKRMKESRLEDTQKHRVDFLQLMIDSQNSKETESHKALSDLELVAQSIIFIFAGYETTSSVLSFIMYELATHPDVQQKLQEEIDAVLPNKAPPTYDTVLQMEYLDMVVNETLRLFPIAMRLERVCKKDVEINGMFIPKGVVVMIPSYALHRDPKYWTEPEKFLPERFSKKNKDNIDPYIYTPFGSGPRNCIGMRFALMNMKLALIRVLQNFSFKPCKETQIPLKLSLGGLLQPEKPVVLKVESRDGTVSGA
T2 sequence (P07339 65-412): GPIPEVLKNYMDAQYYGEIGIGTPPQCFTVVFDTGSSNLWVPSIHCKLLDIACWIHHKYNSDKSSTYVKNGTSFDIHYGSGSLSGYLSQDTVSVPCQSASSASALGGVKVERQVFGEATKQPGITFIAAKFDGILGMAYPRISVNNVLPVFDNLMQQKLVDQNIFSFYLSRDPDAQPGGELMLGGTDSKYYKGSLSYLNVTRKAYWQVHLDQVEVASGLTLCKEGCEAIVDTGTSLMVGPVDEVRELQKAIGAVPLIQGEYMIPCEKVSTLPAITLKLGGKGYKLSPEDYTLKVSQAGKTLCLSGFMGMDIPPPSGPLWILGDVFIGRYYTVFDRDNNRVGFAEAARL

- GSH human (glutathione adduct formation) [1]: NF
- IC50 [2]: > 200 µM
- IC50 [3]: > 200 µM
- IC50 (CYP3A4): > 50 µM
- IC50 (CYP2D6): 24 µM
- IC50 (CYP2C9): > 50 µM
Structure (SMILES): NC1=N[C@](CF)(c2cc(NC(=O)c3nn(C(F)F)cc3Cl)ccc2F)C[C@@H](C(F)(F)F)O1 [Example 46, N-(3-((4S,6S)-2-Amino-4-(fluoromethyl)-6-(trifluoromethyl)-5,6-dihydro-4H-1,3-oxazin-4-yl)-4-fluorophenyl)-4-chloro-1-(difluoromethyl)-1H-pyrazole-3-carboxamide]
- hERG Inhibition @ 10 μM (hERG): 8
- response vs control in vivo at 10 mg/kg (Aβ40 in brain): 61%
